This is an account of results in patent publication US11149047B2, “Aryl imidazoles for treatment of cancer” (Aptose Biosciences Inc., priority 2017, dated 2021).

For test [1], the system named is Nomo-1. As to the kind of experiment: Cytotoxicity study (MTS), 5 days. The test is classed as cell-based. Conditions: Homo sapiens, AML. Here is the method: (§1) EOL-1, GRANTA-519, Jeko-1, Jurkat, Molm-13, NOMO-1, SKM-1, and SU-DHL-6 were obtained from Leibniz-Institut DSMZ. HL-60, KG-1, Mino, MV4-11, Raji, and THP-1 were obtained from ATCC. HEL92.1.7 were obtained from the European Collection of Authenticated Cell Cultures and Ramos cells were a gift from Dr. M. Andreeff (MD Anderson Cancer Center, Houston, Tex.). All cells were cultured in complete media as per the manufacturer's instructions. Early passage cells were collected and frozen within 1 month of receipt from the manufacturer. All experiments were performed on early passage cells within 6 weeks of thawing. MycoScope Mycoplasma Detection Kit (Genlantis catalog #MY01050) was used to screen for potential contamination every 6 months. Peripheral blood mononuclear cells (PBMC) were isolated from fresh healthy donor blood using Ficoll-Paque PLUS (GE Healthcare, catalog #17-1440-02). For synthesis of COMPOUND I free base, 10-phenanthroline-5,6-dione (1.2 equivalents), acetic acid (22 volumes), 2-methyl-5-fluoroindole-3-carboxaldehyde (1.0 equivalents), and ammonium acetate (15 equivalents) were reacted under medium agitation while heated at 95±5° C. for 3 to 7 hours. The reaction was cooled to between 20° C. and 25° C., filtered, rinsed with acetic acid and ethanol, and dried with N2 purge, followed by a wash with 2:1 ethanol:water at 65° C. for 4 hours, cooling to 20° C. to 25° C., filtration, rinsing with 2:1 ethanol:water and EtOAc, and then dried with N2 purge. The purity by HPLC was 99.5%, and the structural identity was confirmed by FT-IR, ^1HNMR, ^13C NMR, and LC/MS. For Fe(COMPOUND I)3 synthesis, five molar equivalents of ferrous ion FeSO4 in water was added to COMPOUND I dissolved in ethanol. The deep red precipitate produced, Fe(COMPOUND I)3, was collected and dissolved in DMSO and characterized by HPLC and mass spectrometry as >95% pure. CX-5461 (7) was purchased from MedChem Express (catalog #HY-13323).
(§2) Cells were plated and treated with vehicle DMSO or COMPOUND I (10 concentrations) in 96-well plates for 5 days at 37° C. and 5% CO2. Cell viability was measured using CellTiter 96 AQueous one solution (MTS) cell proliferation assay (Promega, catalog #G3581), and IC50 values were calculated using GraphPad Prism 7 software.

Test [2] has as its system HEL92.1.7. In words: Cytotoxicity study (MTS), 5 days. The test is classed as cell-based. The settings on record: Homo sapiens, HEL 92.1.7; AML. Here is the method: as §1, §2
For test [3], the system named is Ramos. In words: Cytotoxicity study (MTS), 5 days. The test is classed as cell-based. The settings on record: Homo sapiens, Burkitt's. The method, then:
as §1, §2

Test [4] has as its system KG-1. In words: Cytotoxicity study (MTS), 5 days. The class given is cell-based. The settings on record: Homo sapiens, AML. Here is the method: as §1, §2
Test [5] deals with MOLM-13. In words: Cytotoxicity study (MTS), 5 days. The test is classed as cell-based. The settings on record: Homo sapiens, AML. Here is the method: as §1, §2
For test [6], the system named is Jurkat. As to the kind of experiment: Cytotoxicity study (MTS), 5 days. The test is classed as cell-based. Conditions: Homo sapiens, T-ALL. The method, then: as §1, §2
Test [7] has as its system Raji. As to the kind of experiment: Cytotoxicity study (MTS), 5 days. The class given is cell-based. Conditions: Homo sapiens, Burkitt's. The method, then: as §1, §2
Test [8] relates to HL-60. In words: Cytotoxicity study (MTS), 5 days. The test is classed as cell-based. Conditions: Homo sapiens, AML. Here is the method: as §1, §2
The test system of test [9] is Mino. In words: Cytotoxicity study (MTS), 5 days. The test is classed as cell-based. Conditions: Homo sapiens, MCL. Here is the method: as §1, §2
The test system of test [10] is SUDHL-6. In words: Cytotoxicity study (MTS), 5 days. The class given is cell-based. Conditions: Homo sapiens, SU-DHL-6; DLBCL. Here is the method:
as §1, §2

In test [11] the test system is EOL-1. In words: Cytotoxicity study (MTS), 5 days. The class given is cell-based. The settings on record: Homo sapiens, EOL1; AML. Here is the method:
as §1, §2

For test [12], the system named is GRANTA-519. In words: Cytotoxicity study (MTS), 5 days. The class given is cell-based. The settings on record: Homo sapiens, MCL. Here is the method: as §1, §2
Test [13] relates to BIK, BAD, MCL-1 in Raji/COMPOUND IR cells. In words: Western blot of proteins involved in apoptosis. The class given is cell-based, human. The text has this: In order to delineate which effects of COMPOUND I are most closely linked to sensitivity for this drug, a subline of the Raji Burkitt's lymphoma cell line that had acquired resistance (Raji/COMPOUND IR) as a result of repeated exposure to progressively higher concentrations of COMPOUND I over a period of 6 months was developed. Resistance evolved slowly and progressively without an abrupt change at any point during the selection process. […] This is in the same range as has been reported for freshly isolated AML blasts and CLL cells. Zhang et al., “Inhibition of c-Myc by ATPO-COMPOUND I as an Innovative Therapeutic Approach to Induce Cell Cycle Arrest and Apoptosis in Acute Myeloid Leukemia [abstract],” Blood 2016; 128:1716; Kurtz et al., “Broad Activity of COMPOUND I in AML and other Hematologic Malignancies Correlates with KFL4 Expression Level [abstract],” Blood 2015; 126:1358, both of which are hereby incorporated by reference. […] The level of resistance remained stable for at least 3 months during culture in drug-free media (FIG. 4A). Raji/COMPOUND IR cells grew slightly faster than the parental cells but the difference was not statistically significant.

Test [14] relates to MYC in AML cell lines. In words: MYC mRNA (qRT-PCR) and protein (Western blot) levels. The class given is cell-based. Conditions: all AML cell lines tested, 24 hours. Here is the method: Cells were treated with vehicle or COMPOUND I at various concentrations for 24 hours or at a single concentration for 1, 3, 6, 12, and 24 hours before harvesting. Cells were lysed by QiaShredder columns (QIAGEN, catalog #79656), total RNA was isolated using QIAGEN RNeasy Plus Mini Kit (catalog #74134), and cDNA was synthesized utilizing Transcriptor Universal cDNA master mix (Roche, catalog #05893151001) and then used for qRT-PCR analysis using FastStart essential DNA probes master mix (Roche, catalog #06402682001) and Roche LightCycler96. Primer probe pairs were purchased from IDT (Table 5). Expression was calculated as fold change over vehicle treated samples after normalizing to GAPDH […].
Cells were treated as described above. Whole-cell lysates were prepared, separated by SDS-PAGE, and transferred to nitrocellulose membranes. Densitometry was performed using ImageJ or Image Studio Lite Version5.2 software and normalized to the density of GAPDH.
MYC expression is implicated in the pathogenesis of a wide range of cancers, including leukemia and lymphoma. […] It was also observed that an increased transcription of genes negatively regulated by MYC in COMPOUND I-treated MV4-11 cells. […] The time course of MYC protein repression in MV4-11 cells paralleled inhibition of MYC gene expression levels detected by RNA-seq. […]

The structures appear in SMILES notation.

Turning to `Cc1[nH]c2ccc(F)cc2c1-c1nc2c3cccnc3c3ncccc3c2[nH]1` [COMPOUND I, 2-(5-fluoro-2-methyl-1H-indol-3-yl)-1H-imidazo[4,5-f][1,10]phenanthroline], the half-maximal inhibitory concentration (IC50) in [1] is 1.45 µM; in test [2], 1.75 µM; in test [3], 0.35 µM; in [4] it was 0.51 µM; in test [5] it was 0.14 µM; in test [6] it was 0.52 µM. The IC50 is 0.1 µM in test [7]; 0.46 µM in test [8]; 0.23 µM in [9]; 0.51 µM in test [10]; 0.3 µM in test [11]; 0.082 µM in test [12]. The “changes in BIK, BAD, MCL-1” value in test [13] (0.5 μM, 24 h) is recorded as “None of these changes were detected”. The induction of apoptosis result in [13] (concentration that induced apoptosis in Raji sensitive cells) is listed as “failed to trigger apoptosis”. Further, the “MYC mRNA and protein levels” value in [14] is “concentration-dependent decrease in both MYC mRNA and protein levels”.
